Holding throughout (type): biochemical
In one assay the target is PKC alpha kinase (Homo sapiens, UniProt P17252). In words: PKC alpha kinase inhibition, coupled-enzyme (NADH absorbance) assay, Ki. Conditions: 130 μM ATP, 4.5 nM PKC alpha kinase, 30° C. Summed up: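 Ki derived by non-linear regression of initial rates from a coupled assay tracking NADH absorbance at 340 nm over 15 min at 30 °C. ATP was 130 μM final after a 10 min compound–enzyme preincubation in HEPES pH 7.5 buffer with MgCl2, CaCl2, NaCl, EDTA and Brij.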

The target of a further assay is PKC delta kinase (Homo sapiens, UniProt Q05655). The assay can be described thus: PKC delta kinase inhibition, coupled-enzyme (NADH absorbance) assay, Ki. Conditions: 150 μM ATP, 46 nM PKC delta kinase, 30° C.; read-out: Ki PKC delta. Summed up: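 Enzyme and compound pre-equilibrated 10 min at 30° C before adding ATP to 150 μM final. Buffer: HEPES pH 7.5 (100 mM), 10 mM MgCl2, 25 mM NaCl, 0.1 mM EDTA, 0.01% Brij.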

The target in the next assay is PKC theta kinase (Homo sapiens, UniProt Q04759). In words: PKC theta kinase inhibition, coupled-enzyme (NADH absorbance) assay, Ki. As to conditions: 240 μM ATP, 18 nM PKC theta kinase, 30° C. Summed up:
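Enzyme and compound equilibrated 10 min at 30 °C before reaction in HEPES pH 7.5 buffer with MgCl2, NaCl, EDTA and Brij. Activity tracked as NADH loss at 340 nm through a coupled system. Initial-rate data fitted by non-linear regression to give Ki.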

Our source for the Ki values is patent publication US9193722B2, “Tri-cyclic pyrazolopyridine kinase inhibitors” (Vertex Pharmaceuticals Incorporated, priority 2008, dated 2015).

Chain of PKC theta kinase (Q04759 whole entry): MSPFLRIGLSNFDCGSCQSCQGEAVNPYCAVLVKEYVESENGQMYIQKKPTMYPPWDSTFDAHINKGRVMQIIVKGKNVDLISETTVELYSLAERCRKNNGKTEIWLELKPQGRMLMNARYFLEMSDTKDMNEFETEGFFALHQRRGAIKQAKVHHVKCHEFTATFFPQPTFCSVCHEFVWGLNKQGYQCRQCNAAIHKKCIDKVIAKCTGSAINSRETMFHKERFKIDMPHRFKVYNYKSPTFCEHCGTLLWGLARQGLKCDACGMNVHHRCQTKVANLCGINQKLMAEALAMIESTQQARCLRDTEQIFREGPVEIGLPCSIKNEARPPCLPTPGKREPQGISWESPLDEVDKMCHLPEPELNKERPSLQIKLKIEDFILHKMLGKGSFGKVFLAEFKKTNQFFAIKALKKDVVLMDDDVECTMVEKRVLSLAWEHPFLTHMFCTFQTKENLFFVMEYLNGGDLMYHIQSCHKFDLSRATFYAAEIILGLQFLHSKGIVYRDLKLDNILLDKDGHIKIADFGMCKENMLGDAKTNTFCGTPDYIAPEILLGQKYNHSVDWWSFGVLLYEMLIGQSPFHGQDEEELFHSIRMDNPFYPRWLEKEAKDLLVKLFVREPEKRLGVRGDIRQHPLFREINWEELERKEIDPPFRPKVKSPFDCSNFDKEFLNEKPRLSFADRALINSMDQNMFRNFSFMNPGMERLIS
Chain of PKC delta kinase (Q05655 whole entry): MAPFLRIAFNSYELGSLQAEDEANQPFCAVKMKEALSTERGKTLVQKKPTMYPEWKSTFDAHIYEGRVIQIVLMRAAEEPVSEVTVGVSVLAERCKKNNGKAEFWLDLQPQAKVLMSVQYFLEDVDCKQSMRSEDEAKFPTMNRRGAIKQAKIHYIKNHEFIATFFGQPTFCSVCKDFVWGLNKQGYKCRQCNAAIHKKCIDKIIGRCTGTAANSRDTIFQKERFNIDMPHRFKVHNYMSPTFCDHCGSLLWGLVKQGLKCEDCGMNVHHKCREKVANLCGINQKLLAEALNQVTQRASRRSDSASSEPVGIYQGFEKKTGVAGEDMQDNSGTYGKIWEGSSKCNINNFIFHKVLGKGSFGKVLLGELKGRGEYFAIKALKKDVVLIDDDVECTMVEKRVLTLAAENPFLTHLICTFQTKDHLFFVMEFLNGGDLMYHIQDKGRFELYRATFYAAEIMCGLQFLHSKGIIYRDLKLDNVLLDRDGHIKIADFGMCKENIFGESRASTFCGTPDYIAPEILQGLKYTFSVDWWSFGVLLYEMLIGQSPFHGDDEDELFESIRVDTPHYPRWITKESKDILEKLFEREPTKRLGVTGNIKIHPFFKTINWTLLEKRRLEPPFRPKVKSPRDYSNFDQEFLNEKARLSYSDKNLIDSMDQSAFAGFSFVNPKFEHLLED

Regarding `CC(C)C(C)(O)C1CN(c2nc(-c3n[nH]c4ncccc34)c(F)cc2F)CCN1` (stereo not drawn) [Compound 425], the Ki was less than 500 nM on PKC alpha kinase, less than 50 nM at PKC delta kinase and less than 1 nM at PKC theta kinase.
For `CC(C)C(C)(O)C1CN(c2cncc(-c3n[nH]c4ncccc34)n2)CCN1` (stereo not drawn) [Compound 426], in that order: less than 2800 nM, less than 500 nM and less than 50 nM.
The like results for `CCC1(CC)CN(c2ccc(C(F)(F)F)c(-c3n[nH]c4ncccc34)n2)CCC1N` (stereo not drawn) [Compound 427] were, in that order, more than 1250 nM, less than 500 nM and less than 50 nM.
The like results for `CC1(C)CN(c2ccc(C(F)(F)F)c(-c3n[nH]c4ncccc34)n2)CCC1N` (stereo not drawn) [Compound 428] were, in that order, more than 1250 nM, less than 500 nM and less than 500 nM.
`CC(C)CC1(C#N)CN(c2ccc(C(F)(F)F)c(-c3n[nH]c4ncccc34)n2)C1` [Compound 429]: the figures for the Ki on PKC alpha kinase, on PKC delta kinase and on PKC theta kinase were more than 1250 nM, more than 1250 nM and more than 700 nM, respectively.
Regarding `CC(C)CC1(C(N)=O)CN(c2ccc(C(F)(F)F)c(-c3n[nH]c4ncccc34)n2)C1` [Compound 430], the values for the Ki on PKC alpha kinase, on PKC delta kinase and at PKC theta kinase were more than 1250 nM, more than 1250 nM and more than 700 nM, respectively.
As to `FC(F)(F)c1ccc(C2CCNCC2)nc1-c1n[nH]c2ncccc12` [Compound 431], the Ki on PKC alpha kinase is more than 1250 nM; at PKC delta kinase, more than 1250 nM; at PKC theta kinase, more than 700 nM.
As for `NCC1CCCN(c2cc(C(F)(F)F)cc(-c3n[nH]c4ncccc34)n2)C1` (stereo not drawn) [Compound 432], the Ki is more than 1250 nM on PKC alpha kinase, more than 1250 nM on PKC delta kinase and less than 50 nM at PKC theta kinase.
For `NCC1CN(c2cc(C(F)(F)F)cc(-c3n[nH]c4ncccc34)n2)C1` [Compound 433], the Ki on PKC alpha kinase is more than 1250 nM; on PKC delta kinase, more than 1250 nM; on PKC theta kinase, less than 2800 nM.
For `CCC1(CC(C)C)CN(c2ccc(C(F)(F)F)c(-c3n[nH]c4ncccc34)n2)CCC1N` (stereo not drawn) [Compound 434], the values for the Ki on PKC alpha kinase, on PKC delta kinase and on PKC theta kinase were less than 500 nM, less than 500 nM and less than 50 nM, respectively.
As to `CCCC1(C)CN(c2ccc(C(F)(F)F)c(-c3n[nH]c4ncccc34)n2)CCC1N` (stereo not drawn) [Compound 435], the Ki is less than 500 nM on PKC alpha kinase, less than 500 nM at PKC delta kinase and less than 50 nM at PKC theta kinase.
On to `CC(C)C(C)(O)C1CN(c2ccc(Cl)c(-c3n[nH]c4ncccc34)n2)CCN1` (stereo not drawn) [Compound 437], for which the figures for the Ki on PKC alpha kinase, on PKC delta kinase and on PKC theta kinase were more than 1250 nM, less than 2800 nM and less than 50 nM, respectively.
The like results for `CC(C)C1(C)OC(=O)N2CCN(c3ccc(F)c(-c4n[nH]c5ncccc45)n3)CC21` (stereo not drawn) [Compound 439] were, in that order, more than 1250 nM, more than 1250 nM and less than 500 nM.
The like results for `Fc1ccc(C2CCNCC2)nc1-c1n[nH]c2ncccc12` [Compound 440] were, in that order, more than 1250 nM, more than 1250 nM and less than 500 nM.
The like results for `NC1CCN(c2cc(CO)cc(-c3n[nH]c4ncccc34)n2)CC1` [Compound 441] were, in that order, more than 1250 nM, less than 500 nM and less than 50 nM.
Take `CC(C)C[C@H]1CN(c2cc(C#N)cc(-c3n[nH]c4ncccc34)n2)CCN1` [Compound 442]: the results for the Ki on PKC alpha kinase, on PKC delta kinase and at PKC theta kinase were more than 1250 nM, less than 500 nM and less than 500 nM, respectively.
For the compound `OCc1cc(-c2n[nH]c3ncccc23)nc(N2CCNCC2)c1` [Compound 443], the Ki at PKC alpha kinase was more than 1250 nM; on PKC delta kinase, less than 2800 nM; at PKC theta kinase, less than 500 nM.
The like results for `CC(C)C(C)(O)C1CN(c2nc(-c3n[nH]c4ncccc34)c(F)cc2F)CCN1` (stereo not drawn) [Compound 444] were, in that order, more than 1250 nM, more than 1250 nM and less than 500 nM.
For `CC(C)[C@@](C)(O)[C@@H]1CN(c2nc(-c3n[nH]c4ncccc34)c(F)cc2F)CCN1` [Compound 445], in that order: less than 500 nM, less than 50 nM and less than 1 nM.
The like results for `CC(C)CC1(C#N)CCN(c2ccc(C(F)(F)F)c(-c3n[nH]c4ncccc34)n2)CC1` [Compound 446] were, in that order, more than 1250 nM, more than 1250 nM and more than 700 nM.
Turning to `CCC1(C)CN(c2ccc(C(F)(F)F)c(-c3n[nH]c4ncccc34)n2)CCC1N` (stereo not drawn) [Compound 447], the Ki on PKC alpha kinase is more than 1250 nM; at PKC delta kinase it was less than 500 nM; on PKC theta kinase it was less than 50 nM.
The like results for `CCC(N)C1(C(F)(F)F)CCN(c2ccc(F)c(-c3n[nH]c4ncccc34)n2)C1` (stereo not drawn) [Compound 448] were, in that order, more than 1250 nM, less than 2800 nM and less than 500 nM.
For `CC(C)CC1CN(c2ccc(C(F)(F)F)c(-c3n[nH]c4ncccc34)n2)CCC1CC#N` (stereo not drawn) [Compound 450], in that order: more than 1250 nM, more than 1250 nM and less than 500 nM.
The like results for `CC(C)C[C@H]1CN(c2cc(CO)cc(-c3n[nH]c4ncccc34)n2)CCN1` [Compound 451] were, in that order, less than 2800 nM, less than 500 nM and less than 50 nM.
Turning to `CC(C)CC1CN(c2ccc(F)c(-c3n[nH]c4ncccc34)n2)CCC1CC#N` (stereo not drawn) [Compound 452], the values for the Ki at PKC alpha kinase, at PKC delta kinase and on PKC theta kinase were more than 1250 nM, more than 1250 nM and less than 50 nM, respectively.
Turning to `NCC1CCN(c2cc(CO)cc(-c3n[nH]c4ncccc34)n2)CC1` [Compound 453], the Ki was more than 1250 nM at PKC alpha kinase, less than 500 nM on PKC delta kinase and less than 50 nM at PKC theta kinase.
The like results for `CC(C)C(C)(O)C1CN(c2cc(CO)cc(-c3n[nH]c4ncccc34)n2)CCN1` (stereo not drawn) [Compound 454] were, in that order, less than 2800 nM, less than 500 nM and less than 50 nM.
For `CC(C)CC1(C#N)CN(c2ccc(F)c(-c3n[nH]c4ncccc34)n2)C1` [Compound 456], in that order: more than 1250 nM, more than 1250 nM and more than 700 nM.
The like results for `CC(C)CC1(CN)CN(c2ccc(F)c(-c3n[nH]c4ncccc34)n2)C1` [Compound 457] were, in that order, more than 1250 nM, more than 1250 nM and more than 700 nM.
In the case of `N#CCCC1CN(c2ccc(F)c(-c3n[nH]c4ncccc34)n2)CCC1O` (stereo not drawn) [Compound 458], the results for the Ki at PKC alpha kinase, on PKC delta kinase and on PKC theta kinase were more than 1250 nM, more than 1250 nM and less than 500 nM, respectively.
As to `N#CCCC1CN(c2ccc(C(F)(F)F)c(-c3n[nH]c4ncccc34)n2)CCC1O` (stereo not drawn) [Compound 459], the Ki at PKC alpha kinase was more than 1250 nM; on PKC delta kinase, more than 1250 nM; at PKC theta kinase it was less than 2800 nM.
With `NC1CCN(c2ccc(C(F)(F)F)c(-c3n[nH]c4ncccc34)n2)CC12CCCCC2` (stereo not drawn) [Compound 461], the Ki was more than 1250 nM at PKC alpha kinase, less than 500 nM at PKC delta kinase and less than 50 nM at PKC theta kinase.
Take `NC1CCN(c2ccc(C(F)(F)F)c(-c3n[nH]c4ncccc34)n2)CC12CCOCC2` (stereo not drawn) [Compound 462]: the Ki at PKC alpha kinase is more than 1250 nM; at PKC delta kinase, less than 2800 nM; at PKC theta kinase, less than 500 nM.
For `NC1CCN(c2ccc(C(F)(F)F)c(-c3n[nH]c4ncccc34)n2)CC12CCCC2` (stereo not drawn) [Compound 464], in that order: less than 500 nM, less than 500 nM and less than 50 nM.
For `CC(C)CC1(CN)CCN(c2ccc(C(F)(F)F)c(-c3n[nH]c4ncccc34)n2)CC1` [Compound 466], in that order: more than 1250 nM, more than 1250 nM and less than 500 nM.
Consider `CC(C)CC1(CN)CCN(c2ccc(F)c(-c3n[nH]c4ncccc34)n2)CC1` [Compound 467], for which the Ki is more than 1250 nM on PKC alpha kinase, more than 1250 nM on PKC delta kinase and less than 500 nM on PKC theta kinase.
Regarding `CC(C)CC1CN(c2ccc(C(F)(F)F)c(-c3n[nH]c4ncccc34)n2)CCC1CCN` (stereo not drawn) [Compound 469], the figures for the Ki on PKC alpha kinase, on PKC delta kinase and on PKC theta kinase were more than 1250 nM, more than 1250 nM and less than 500 nM, respectively.
